Read-outs that look alike come from different tables or passages of the source.
Columns and labels:
[1] = test system: GR induced AP-1 transrepression; test: In vitro assay to measure GR induced AP-1 transrepression (luciferase reporter, A549 cells); type: cell-based; conditions: concentration of ≦10 μM; 10 ng/ml PMA; typical value
Description: The AP-1 assay is a cell based luciferase reporter assay. A549 cells, which contain endogenous glucocorticoid receptor, were stably transfected with an AP-1 DNA binding site attached to the luciferase gene. Cells are then grown in RPMI+10% fetal calf serum (charcoal-treated)+Penicillin/Streptomycin with 0.5 mg/ml geneticin. Cells are plated the day before the assay at approximately 40000 cells/well. On assay day, the media is removed by aspiration and 20 μl assay buffer (RPMI without phenol red+10% FCS (charcoal-treated)+Pen/Strep) is added to each well. At this point either 20 μl assay buffer (control experiments), the compounds of the present invention (“test compounds”) (dissolved in DMSO and added at varying concentrations) or dexamethasome (100 nM in DMSO, positive control) are added to each well. The plates are then pre-incubated for 15 minutes at 37° C., followed by stimulation of the cells with 10 ng/ml PMA. The plates are then incubated for 7 hrs at 37° C. after which 40 μl luciferase substrate reagent is added to each well. Activity is measured by analysis in a luminometer as compared to control experiments treated with buffer or dexamethasome. […] The control, dexamethasone, at a concentration of ≦10 μM typically suppresses activity by 65%.

AR [2] = biological target: T1, AR (Rattus norvegicus, UniProt P15207)
T1 sequence (P15207 1-902): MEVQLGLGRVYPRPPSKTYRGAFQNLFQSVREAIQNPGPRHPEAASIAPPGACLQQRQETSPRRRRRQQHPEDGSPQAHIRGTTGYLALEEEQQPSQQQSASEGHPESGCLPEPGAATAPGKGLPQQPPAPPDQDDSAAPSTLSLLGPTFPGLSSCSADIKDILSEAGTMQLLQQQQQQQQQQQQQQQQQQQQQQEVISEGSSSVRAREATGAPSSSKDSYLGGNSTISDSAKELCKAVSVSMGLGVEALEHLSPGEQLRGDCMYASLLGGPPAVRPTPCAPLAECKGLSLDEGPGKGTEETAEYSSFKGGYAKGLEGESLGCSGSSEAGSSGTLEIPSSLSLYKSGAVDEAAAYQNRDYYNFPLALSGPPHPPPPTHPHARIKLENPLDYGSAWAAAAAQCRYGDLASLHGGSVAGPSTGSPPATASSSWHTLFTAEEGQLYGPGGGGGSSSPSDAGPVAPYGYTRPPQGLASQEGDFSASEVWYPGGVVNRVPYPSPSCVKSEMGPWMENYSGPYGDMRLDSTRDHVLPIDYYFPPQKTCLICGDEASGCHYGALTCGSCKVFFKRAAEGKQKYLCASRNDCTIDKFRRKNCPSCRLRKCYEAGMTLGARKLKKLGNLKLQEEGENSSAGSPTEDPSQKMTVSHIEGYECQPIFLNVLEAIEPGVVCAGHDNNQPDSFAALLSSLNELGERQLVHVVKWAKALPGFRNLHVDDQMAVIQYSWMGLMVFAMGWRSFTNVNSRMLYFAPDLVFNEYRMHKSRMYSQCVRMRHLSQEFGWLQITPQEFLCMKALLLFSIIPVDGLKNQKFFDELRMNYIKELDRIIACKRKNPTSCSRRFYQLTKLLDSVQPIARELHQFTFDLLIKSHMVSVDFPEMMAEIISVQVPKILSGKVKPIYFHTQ

AR [3] = biological target: T1, AR; conditions: castrated rats
From the text: The activity of compounds of the present invention as AR agonists was investigated in an immature male rat model, a recognized test of anabolic effects in muscle and sustaining effects in sex organs for a given compound, as described in L. G. Hershberger et al., Proc. Soc. […] Nem.
The basis of this assay lies in the well-defined action of androgenic agents on the maintenance and growth of muscle tissues and sexual accessory organs in animals and man. […] J. Anat. […] Ital. Biol. Sper. […] II. […] Ital. Biol. Sper. […] As described above, the effects of androgens on maintenance of male sexual accessory organs, such as the prostate and seminal vesicles, is well described. Castration results in rapid involution and atrophy of the prostate and seminal vesicles. This effect can be reversed by exogenous addition of androgens. Since both the levator ani muscle and the male sex organs are the tissues most responsive to the effects of androgenic agents, this model is used to determine the androgen dependent reversal of atrophy in the levator ani muscle and the sex accessory organs in immature castrated rats. Sexually mature rats (200-250 g, 6-8 weeks-old, Sprague-Dawley, Harlan) were acquired castrated from the vendor (Taconic). The rats were divided into groups and treated daily for 7 to 14 days with one of the following: • 1. Control vehicle • 2. […]

## C[C@@H]1C[C@H]2[C@@H]3CCC4=CC(=O)C=C[C@]4(C)[C@@]3(F)[C@@H](O)C[C@]2(C)[C@@]1(O)C(=O)CO [dexamethasone]
[1]
  suppression of activity (% inhibition of the reporter system vs buffer control with PMA alone): 65%

## CCC(=O)O[C@H]1CC[C@H]2[C@@H]3CCC4=CC(=O)CC[C@]4(C)[C@H]3CC[C@]12C [TP, Testosterone Propionate]
AR [2]; immature castrated rat model
  ED80 (organ weight increase): 0.1 mg
AR [2]; immature castrated rats, dosing for 3 days
  EC50 (increase in organ weight): ~0.03 mg
AR [2]; immature castrated rats, organ weight
  potency relative to free T: 10-30 fold
AR [3]; dosing for 3 days
  EC50 (increase in organ weight): ~0.03 mg
AR [3]; organ weight
  potency relative to free T: 10-30 fold

Reference: patent US7655688B2, “Fused cyclic succinimide compounds and analogs thereof, modulators of nuclear hormone receptor function” (Bristol-Myers Squibb Company, priority 2001, dated 2010)
